Blank lines part the entries; values can stand above or below the molecule they belong to. Peptide text beside a SMILES is read from it.
Key:
[1] = molecular target: T1, BNGR-A24 (Bombyx mori, UniProt B3XXN7); assay: cell-based
T1 sequence (B3XXN7 1-391): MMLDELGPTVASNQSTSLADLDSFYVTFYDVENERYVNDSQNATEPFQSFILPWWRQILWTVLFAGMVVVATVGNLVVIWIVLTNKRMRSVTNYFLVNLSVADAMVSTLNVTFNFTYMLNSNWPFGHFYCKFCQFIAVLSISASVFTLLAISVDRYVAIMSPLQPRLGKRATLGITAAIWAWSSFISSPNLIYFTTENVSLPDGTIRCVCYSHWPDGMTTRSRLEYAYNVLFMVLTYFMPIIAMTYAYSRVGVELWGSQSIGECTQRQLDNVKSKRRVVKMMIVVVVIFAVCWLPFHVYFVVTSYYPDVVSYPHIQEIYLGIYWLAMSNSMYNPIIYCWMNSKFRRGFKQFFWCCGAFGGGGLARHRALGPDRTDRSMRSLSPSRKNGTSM
Experimental: (§1) The assays were performed as previously reported. Briefly, HEK293T cells seeded on a glass-based dish were co-transfected with pME18S plasmids carrying BNGRs and the promiscuous G protein alpha subunit, Gα15. Following 24 h incubation, the transfected cells were loaded with 500 μL of a Ca^2+ indicator solution (2 μM Fluo-4 AM [Dojin Chemicals, Kumamoto, Japan] and 0.01% Pluronic-F 127 [Anaspec, San Jose, CA, USA] in Opti-MEM [Life Technologies]) and incubated at 37°C for 30 min in a dark room. The cells were washed twice with Ringer’s solution and then 800 μL Ringer’s solution was added to the cells. Within a given run time, 100 μL of the following compounds were added sequentially: Ringer’s solution (at 15 s, vehicle control), the peptide of interest or a mixture with its potential competitor (at 60 s), and 100 μM ATP (at 120 s, an experimental control). Fluo-4-derived fluorescence was chronologically monitored using a confocal laser-scanning microscope (FV-1000D; Olympus, Tokyo, Japan), with the preinstalled dye mode for Fluo-3. At least three independent experiments were performed. Dose-response curves were generated and EC50 values were calculated from the obtained fitting curves.
In order to evaluate whether the three TRP receptor candidates, BNGR-A24, -A32, and -A33, function as receptors for B. mori TRPs, the response of these three BNGRs to chemically synthesized TRPs was examined using the Ca^2+ imaging assay.
The response of HEK293T cells co-expressing BNGR-A24 (A) or BNGR-A32 (B) and promiscuous mouse Gα15 to the TRPs was monitored using the Ca^2+ imaging technique. Dose-response curves are depicted as relative fluorescent intensity (mean ± S.D.; n = 3).

[2] = molecular target: EGFP-fused BNGR-A24 (Bombyx mori neuropeptide G protein-coupled receptor A24) (Bombyx mori) (UniProt B3XXN7)
[3] = molecular target: T2, BNGR-A32 (Bombyx mori, UniProt B3XXP5); assay: Ca2+ imaging assay of BNGR-A32 in HEK293T cells co-expressing Gα15; assay type: cell-based; details: HEK293T cells co-expressing BNGR-A32 and promiscuous mouse Gα15; Fluo-4 Ca2+ imaging; from fitted dose-response curves, n = 3
T2 sequence (B3XXP5 1-372): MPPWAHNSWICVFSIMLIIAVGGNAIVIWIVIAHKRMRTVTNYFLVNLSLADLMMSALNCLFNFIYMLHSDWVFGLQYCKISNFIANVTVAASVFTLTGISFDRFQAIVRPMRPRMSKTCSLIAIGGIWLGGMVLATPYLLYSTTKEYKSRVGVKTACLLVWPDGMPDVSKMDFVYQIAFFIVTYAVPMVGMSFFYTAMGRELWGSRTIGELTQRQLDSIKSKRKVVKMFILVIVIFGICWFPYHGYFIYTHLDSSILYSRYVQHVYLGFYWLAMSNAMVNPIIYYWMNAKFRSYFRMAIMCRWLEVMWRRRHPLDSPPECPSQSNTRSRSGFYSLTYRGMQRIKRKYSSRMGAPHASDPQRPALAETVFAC
Experimental: as §1, with “curves. […]” for “curves.”
The response of HEK293T cells co-expressing BNGR-A24 (A) or BNGR-A32 (B) and promiscuous mouse Gα15 to the TRPs was monitored using the Ca^2+ imaging technique. […]

[4] = system: BmN cells (BNGR-A24-expressing); assay: Competitive cGMP assay in BmN cells; assay type: cell-based, Bombyx mori; details: 30 min, IBMX
Experimental: BmN cells were plated in 12-well tissue culture plates (2 × 10^5 cells/well; Asahi glass, Yokohama, Japan) and maintained in normal growth medium (TC-100 [Applichem, Darmstadt, Germany], 10% FBS, and 50 μg/mL gentamycin). At 3 days post-seeding, the cells were pre-incubated in 800 μL of assay medium (TC-100 supplemented with 1 mM 1-methyl-3-isobutylxanthine [IBMX; Sigma-Aldrich, Tokyo, Japan]) and 1 mM phenylmethylsulfonyl fluoride for 10 min at 28°C. Following pre-incubation, 100 μL of a potential competitor and 100 μL of the peptide of interest were added sequentially to the medium and incubated at 28°C for 30 min. […] The extracted cAMP and cGMP were quantified in duplicate using a cAMP ELISA kit (Cayman Chemicals, Ann Arbor, MI, USA) and a cGMP EIA system (GE Healthcare, Hino, Japan), respectively. […]
Since ITPL and TK-4 are competitive ligands of BNGR-A24, we hypothesized that TK-4 might inhibit the cGMP signal induced by ITPL via the binding of ITPL to BNGR-A24. To confirm this hypothesis, we added an excess of TK-4 to BmN cells exposed to rITPL and evaluated the stimulatory effect of ITPL on the cGMP signal.
Fig 5 Effects of TK-4, rITPL, and spantide I on cyclic nucleotide levels in BmN cells. Intracellular cGMP (A) and cAMP (B) levels in BmN cells following 30-min incubation with the peptide and reagent of interest at the indicated concentrations were measured. […]

[5] = molecular target: T1, BNGR-A24; assay: Competitive binding assay, RR-labeled ligands and CHO cells expressing EGFP-fused BNGR-A24; details: CHO cells, EGFP-fused BNGR-A24, 4°C
Experimental: Binding assays were performed as previously reported. Briefly, CHO cells were transfected with 2 μg of pME18S plasmids harboring enhanced green fluorescent protein (EGFP)-fused BNGR cDNA. The binding assay was performed with cells 24 h post transfection. The cells were pre-incubated at 4°C for 30 min prior to the assay to minimize receptor internalization by ligand binding. Following the addition of 50 μL of non-labeled ligand as a potential competitor, 50 μL of RR-labeled ligand was added. Subsequent to incubation at 4°C for 60 min, the cells were washed twice with an ice-cold fixation buffer (4% formaldehyde in PBS) and then 500 μL of the fixation buffer was added. The fluorescence derived from EGFP and RR was observed using a confocal microscope (FV-1000D) with preinstalled dye modes for EGFP and DsRed, respectively. The fluorescent data obtained from six individual cells of at least two independent experiments were analyzed using Fluoview software (Olympus).
Following 30-min exposure of the cells to RR-labeled rITPL or TK-4, both red fluorescence (derived from the RR-labeled ligands) and green fluorescence (derived from EGFP C-terminally fused to BNGR-A24) were observed on the cell surface, indicating ligand-receptor binding (Fig 4). […] In this case, the addition of 20 μM rITPL reduced the ligand-derived signal by approximately 90% compared to that observed without the addition of unlabeled ligand.
Fig 4 In vitro competitive binding assay of rITPL and TK-4 to BNGR-A24. (A–D) Microscopic imaging. The binding of RR-labeled ligands (A and C, rITPL; B and D, TK-4) and CHO cells expressing EGFP-fused BNGR-A24 was examined in the presence of potential competitors (A, TK-4; B, rITPL; C and D, spantide I [SP]). EGFP and RR fluorescences were observed by confocal microscopy. Co-localization is presented as yellow in the merged images (Merge). Representative images of cells from at least two independent experiments are shown. (E–H) Relative fluorescent intensity obtained from experiment images (A)–(D), respectively. […]

[6] = molecular target: EGFP-fused BNGR-A24 (Bombyx mori neuropeptide G protein-coupled receptor A24) (Bombyx mori) (UniProt B3XXN7); assay: fluorescent-ligand binding on cells (confocal microscopy); CHO cells expressing EGFP-fused BNGR-A24, pre-incubated at 4°C for 30 min; unlabeled competitor added, then RR-labeled ligand; 4°C for 60 min; washed and fixed (4% formaldehyde in PBS); RR fluorescence normalized by EGFP
[7] = molecular target: T1, BNGR-A24; assay: Ca2+ imaging assay of BNGR-A24 with competitor added together with the ligand; assay type: cell-based
Experimental: The assays were performed as previously reported. […] At least three independent experiments were performed.
Next, we examined the effect of simultaneous addition of spantide I and rITPL on ligand competition. The dose-response curve of 10–300 nM rITPL shifted in a similar manner to that observed for TK-4.
Fig 3 Effect of spantide I on the response of BNGR-A24 to rITPL and TK-4. Spantide I (SP), a potential competitor, was added together with rITPL or TK-4 and the response of BNGR-A24 was monitored using the Ca^2+ imaging assay. Dose-response curves of the responses are presented as relative fluorescent intensity (mean ± S.D.; n = 3). Asterisks indicate significant differences for treatment with the same ligand without spantide I (P < 0.05; Dunnett’s test).

[8] = molecular target: BNGR-A32 (Bombyx mori neuropeptide G protein-coupled receptor A32) (Bombyx mori)

Molecule: CC[C@H](C)[C@H](N)C(=O)N1CCC[C@H]1C(=O)N[C@@H](CCC(N)=O)C(=O)NCC(=O)N[C@@H](Cc1ccccc1)C(=O)N[C@@H](CC(C)C)C(=O)NCC(=O)N[C@@H](CCSC)C(=O)N[C@@H](CCCNC(=N)N)C(N)=O [TK-1] (H-IPQGFLGMR-NH2; N-terminus assumed)
EC50 [1]: 7.1 nM

EC50 of the Ca2+ imaging response (Fluo-4) of HEK293T cells co-expressing BNGR-A24 and Galpha15 [2]: 7.1 nM
Molecule: B. mori tachykinin-related peptide TK-1

Molecule: CSCC[C@H](NC(=O)CNC(=O)[C@H](Cc1ccccc1)NC(=O)[C@H](Cc1ccccc1)NC(=O)CNC(=O)[C@H](CCSC)NC(=O)[C@H](CCC(N)=O)NC(=O)CN)C(=O)N[C@@H](CCCNC(=N)N)C(N)=O [TK-5] (H-GQMGFFGMR-NH2)
EC50 [1]: 2.3 nM
EC50 [3]: 0.48 nM

Molecule: CC[C@H](C)[C@H](NC(=O)[C@H](Cc1ccccc1)NC(=O)[C@H](CCCCN)NC(=O)CNC(=O)[C@H](CCCNC(=N)N)NC(=O)[C@@H](NC(=O)[C@H](CO)NC(=O)[C@H](CC(C)C)NC(=O)[C@H](CC(=O)O)NC(=O)[C@H](Cc1ccc(O)cc1)NC(=O)[C@@H]1CCCN1)[C@@H](C)CC)C(=O)NCC(=O)N[C@H](C(=O)N[C@@H](CCCNC(=N)N)C(N)=O)C(C)C [TK-4] (H-PYDLSIRGKFIGVR-NH2; N-terminus assumed)
Effect on rITPL-induced cGMP levels ([4]; BmN cells exposed to 100 nM rITPL, ≥3 μM TK-4 added as competitor): significant decrease
Intracellular cGMP levels ([4]; BmN cells, peptide alone at concentrations as high as 10 μM, 28°C, cGMP EIA): failed to increase
EC50 [1]: 0.27 nM
Fluorescence of RR-labeled rITPL on the cell surface ([5]; 1–100 μM unlabeled TK-4 added before RR-labeled rITPL): gradually decreased

EC50 of the Ca2+ imaging response (Fluo-4) of HEK293T cells co-expressing BNGR-A24 and Galpha15 [2]: 0.79 nM
Molecule: B. mori tachykinin-related peptide TK-3

percent reduction of the RR-labeled TK-4 signal at 20 uM rITPL [6]: 90%
Molecule: Recombinant B. mori ion transport peptide-like (rITPL) (ligand)

EC50 of the Ca2+ imaging response (Fluo-4) of HEK293T cells co-expressing BNGR-A24 and Galpha15 [2]: 0.27 nM
Molecule: B. mori tachykinin-related peptide TK-4

EC50 of the Ca2+ imaging response (Fluo-4) of HEK293T cells co-expressing BNGR-A24 and Galpha15 [2]: 0.49 nM
Molecule: B. mori tachykinin-related peptide TK-2

Molecule: spantide I
Fluorescence derived from RR-labeled TK-4 ([5]; 50 μM spantide I as competitor): nearly complete quenching
Fluorescence derived from RR-labeled rITPL ([5]; 50 μM spantide I as competitor): nearly complete quenching
Effect on response of BNGR-A24 to rITPL ([7]; 50 μM spantide I added with 10–300 nM rITPL, n = 3, vs no competitor): significantly lower
Effect on response of BNGR-A24 to TK-4 ([7]; simultaneous treatment with 10 μM or 50 μM spantide I, n = 3, Dunnett's test P < 0.05): significantly decreased

Molecule: CSCC[C@H](NC(=O)[C@H](CC(N)=O)NC(=O)[C@H](C)NC(=O)[C@H](C)N)C(=O)N[C@@H](Cc1c[nH]cn1)C(=O)N[C@@H](CCC(N)=O)C(=O)N[C@@H](Cc1ccccc1)C(=O)N[C@@H](Cc1ccc(O)cc1)C(=O)NCC(=O)N[C@H](C(=O)N[C@@H](CCCNC(=N)N)C(N)=O)C(C)C [TK-3] (H-AANMHQFYGVR-NH2; N-terminus assumed)
EC50 [1]: 0.79 nM

EC50 of the Ca2+ imaging response (Fluo-4) of HEK293T cells co-expressing BNGR-A32 and Galpha15 [8]: 0.48 nM
EC50 of the Ca2+ imaging response (Fluo-4) of HEK293T cells co-expressing BNGR-A24 and Galpha15 [2]: 2.3 nM
Molecule: B. mori tachykinin-related peptide TK-5
